pIC50: −log10 of the molar value. Counter-ions that a name gives are not always drawn.
The compounds below were run against T1, methionine aminopeptidase-2 (MetAP2) (Homo sapiens, UniProt P50579) (assay: Inhibition of MetAP2 enzyme activity (96-well, Met-Ala-Ser substrate, L-amino acid oxidase/peroxidase/ortho-dianisidine, 450 nm)). Settings: IC50, recombinant MetAP2 4 μg/mL, pH 7.4, Met-Ala-Ser substrate, 20 minutes.
T1 construct: made in house; host or cells: insect cells, baculovirus system (secreted, purified from culture supernatant)
Assay type: biochemical
Procedure: The ability of compounds of the present invention to inhibit methionine aminopeptidase 2 was evaluated using the following assay.
Assays for MetAP2 enzyme activity and MetAP2 inhibition were performed in 96-well microtiter plates. Compounds to be tested for MetAP2 inhibition were dissolved in dimethyl-sulfoxide at 10 mM and diluted ten-fold in assay buffer ([…], pH 7.4, 100 mM NaCl). Ten microliters of solution of each compound to be tested for inhibition were introduced into each cell of the plate, with each compound being tested in triplicate.
The absorbence at 450 nanometers was measured every 20 seconds over a period of twenty minutes using an automaic plate reader (Molecular Devices, CA, USA). The Vmax in mOD/min, calculated for each well was used to represent MetAP2 activity. The IC50 for each inhibitor was obtained by plotting the remaining MetAP2 activity versus inhibitor concentration.

T1 sequence (P50579 whole entry): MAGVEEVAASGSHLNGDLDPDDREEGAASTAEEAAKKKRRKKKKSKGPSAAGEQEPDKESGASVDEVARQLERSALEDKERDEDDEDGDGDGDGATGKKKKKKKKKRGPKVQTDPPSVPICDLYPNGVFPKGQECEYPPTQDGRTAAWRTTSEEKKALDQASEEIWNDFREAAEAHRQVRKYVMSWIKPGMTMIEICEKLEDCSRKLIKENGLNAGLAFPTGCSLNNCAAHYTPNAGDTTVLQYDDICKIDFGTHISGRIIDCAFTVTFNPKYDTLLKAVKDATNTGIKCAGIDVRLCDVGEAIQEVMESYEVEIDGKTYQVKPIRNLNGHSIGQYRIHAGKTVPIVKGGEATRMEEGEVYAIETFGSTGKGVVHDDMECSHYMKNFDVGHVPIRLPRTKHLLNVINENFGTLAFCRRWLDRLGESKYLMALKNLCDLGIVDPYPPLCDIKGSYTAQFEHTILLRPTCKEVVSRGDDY

| Compound | pIC50 |
| --- | --- |
| CSCC[C@@H](N)C(O)C(=O)NCCCCc1ccccc1 (mixture of isomers) [Example 7, (2RS,3R)-N-(4-phenylbutyl)-3-amino-2-hydroxy-5-(methylthio)pentanamide hydrochloride] | 5.70 |
| COc1ccc(CCNC(=O)C(O)[C@H](N)CCSC)cc1 (mixture of isomers) [Example 8, (2RS,3R) N-(2-(4-methoxyphenyl)ethyl)-3-amino-2-hydroxy-5-(methylthio)pentanamide hydrochloride] | 5.64 |
| CSCC[C@@H](N)C(O)C(=O)NCCc1ccc(Oc2ccccc2)cc1 (mixture of isomers) [Example 11, (2RS,3R)-N-(2-(4-phenoxyphenyl)ethyl)-3-amino-2-hydroxy-5-(methylthio)pentanamide hydrochloride] | 5.59 |
| CCOC(=O)CCCNC(=O)C(O)[C@H](N)CCSCC (mixture of isomers) [Example 16, (2RS,3R)-N-(3-(carboethoxy)propyl)-3-amino-2-hydroxy-5-(ethylthio)pentanamide hydrochloride] | 6.11 |
| CSCC[C@@H](N)C(O)C(=O)O (mixture of isomers) [Example 18, (2RS,3R)-3-amino-2-hydroxy-5-(methylthio)pentanoic acid] | 6.82 |
| CSCC[C@@H](N)C(O)C(=O)NCCc1ccncc1 (mixture of isomers) [Example 19, (2RS,3R)-N-(2-(4-pyridyl)ethyl)-3-amino-2-hydroxy-5-(methylthio)pentanamide] | 5.80 |
| CCOC(=O)CCNC(=O)C(O)[C@H](N)Cc1ccccc1 (mixture of isomers) [Example 20, (2RS,3R)-N-(2-(carboethoxy)ethyl)-3-amino-2-hydroxy-4-phenyl-butanamide hydrochloride] | 5.24 |
| CCOC(=O)CCCNC(=O)C(O)[C@H](N)Cc1ccccc1 (mixture of isomers) [Example 21, (2RS,3R)-N-(3-(carboethoxy)propyl)-3-amino-2-hydroxy-4-phenyl-butanamide hydrochloride] | 4.85 |
| N[C@H](Cc1ccccc1)C(O)C(=O)NCCCCc1ccccc1 (mixture of isomers) [Example 22, (2RS,3R)-N-(4-phenylbutyl)-3-amino-2-hydroxy-4-phenyl-butanamide hydrochloride] | 5.47 |
| CSCC[C@@H](N)C(O)C(=O)NCCc1cccnc1 (mixture of isomers) [Example 32, (2RS,3R)-N-(2-(3-pyridyl)ethyl)-3-amino-2-hydroxy-5-(methylthio)pentanamide] | 5.85 |
| N[C@H](CC1CCCCC1)C(O)C(=O)NCCCCNS(=O)(=O)c1cccc(C(F)(F)F)c1 (mixture of isomers) [Example 84, (2RS,3R)-3-amino-4-cyclohexyl-2-hydroxy-N-(4-(((3-(trifluoromethyl)phenyl)sulfonyl)amino)butyl)butanamide hydrochloride] | 5.48 |
| COc1ccc(S(=O)(=O)NCCCCNC(=O)C(O)[C@H](N)CC2CCCCC2)cc1OC (mixture of isomers) [Example 85, (2RS,3R)-3-amino-4-cyclohexyl-N-(4-(((3,4-dimethoxyphenyl)sulfonyl)amino)butyl)-2-hydroxybutanamide hydrochloride] | 5.49 |
| N[C@H](CC1CCCCC1)C(O)C(=O)NCCCCNS(=O)(=O)c1ccc2ccccc2c1 (mixture of isomers) [Example 87, (2RS,3R)-3-amino-4-cyclohexyl-2-hydroxy-N-(4-((2-naphthylsulfonyl)amino)butyl)butanamide hydrochloride] | 5.57 |
| N[C@H](CC1CCCCC1)C(O)C(=O)NCc1ccco1 (mixture of isomers) [Example 100, (2RS,3R)-3-Amino-4-cyclohexyl-N-(2-furylmethyl)-2-hydroxybutanamide Hydrochloride] | 5.23 |

Same assay, conditions: recombinant MetAP2 4 μg/mL, pH 7.4, Met-Ala-Ser substrate, 20 minutes

| Compound | pIC50 |
| --- | --- |
| CCOC(=O)CCCNC(=O)C(O)[C@H](N)CC1CCCCC1 (mixture of isomers) [Example 25, (2RS,3R)-N-(3-(carboethoxy)propyl)-3-amino-2-hydroxy-4-cyclohexyl-butanamide hydrochloride] | 5.72 |

From patent US6242494A, “Substituted β-amino acid inhibitors of methionine aminopeptidase-2” (Abbott Laboratories, priority 1999, dated 2001)
